From patent publication US20040067218A1, “Extramedullary adipose tissue cells and use thereof for regenerating hematopoietic and muscular tissue” (priority 2001, published 2004)

Columns and labels:
[1] = test system: muscarinic acetylcholine receptors; assay: Spontaneous contractile activity of cardiomyocytes differentiated from vascular stroma cells (muscarinic agents); assay type: cell-based, mouse; conditions: untreated = 100%
Procedure: (§1) Cells of the vascular stroma, isolated as described in Example 1.2, are cultured in the methylcellulose-based semi-solid medium as defined above (Example 1.8).
(§2) The cardiomyocytes are also detected by their spontaneous contractile activity in the presence or absence of agonists or antagonists of muscarinic acetylcholine receptors (carbamylcholine and atropine, respectively) or β-adrenergic receptors (isoproterenol and propranolol, respectively).
(§3) More precisely, 1 ml of DMEM medium containing carbamylcholine (2 μM), atropine (10 μM), isoproterenol (10 μM) or propranolol (40 μM) is added to the methyl-cellulose-based medium. After incubation for 5 min, necessary for diffusion of the molecules, the excess buffer is removed and the cell contractions are counted under the microscope for one minute.
(§4) The values correspond to the mean of 3 independent measurements.

β-adrenergic receptors = assay: Spontaneous contractile activity of cardiomyocytes differentiated from vascular stroma cells (β-adrenergic agents); assay type: cell-based, mouse; conditions: untreated = 100%
Procedure: as §1, §2, §3, §4

In the case of CN1[C@@H]2CC[C@H]1C[C@@H](OC(=O)C(CO)c1ccccc1)C2 (stereo partly shown) [Atropine, atropine], the Contractions ([1]; atropine (10 μM) added with carbamylcholine (2 μM), mean of 3) is reported as 106%.

C[N+](C)(C)CCOC(N)=O.[Cl-] [Carbamylcholine, carbamylcholine] was tested, and the Contractions ([1]; carbamylcholine (2 μM) alone, mean of 3 independent measurements) was 53%.

CC(C)NCC(O)c1ccc(O)c(O)c1 (stereo not shown) [Isoproterenol, isoproterenol] was tested, and the Contractions (β-adrenergic receptors; isoproterenol (10 μM) alone, mean of 3 independent measurements) was 160%.

With CC(C)NCC(O)COc1cccc2ccccc12 (stereo not shown) [Propranolol, propranolol] the Contractions (β-adrenergic receptors; propranolol (40 μM) added with isoproterenol (10 μM), mean of 3) was 100%.
